Assay results from patent US11365199B2, “Pyrazole compounds as modulators of FSHR and uses thereof” (Merck Patent GmbH, priority 2013, dated 2022).
Read-outs that look alike come from different tables or passages of the source.

Molecular target: T1, FSHR (Homo sapiens, UniProt P23945)
T1 construct: expressed in transfected cells; host or cells: CHO (Cho-FSHR-LUC-1-1-43)
T1 sequence (P23945 18-695): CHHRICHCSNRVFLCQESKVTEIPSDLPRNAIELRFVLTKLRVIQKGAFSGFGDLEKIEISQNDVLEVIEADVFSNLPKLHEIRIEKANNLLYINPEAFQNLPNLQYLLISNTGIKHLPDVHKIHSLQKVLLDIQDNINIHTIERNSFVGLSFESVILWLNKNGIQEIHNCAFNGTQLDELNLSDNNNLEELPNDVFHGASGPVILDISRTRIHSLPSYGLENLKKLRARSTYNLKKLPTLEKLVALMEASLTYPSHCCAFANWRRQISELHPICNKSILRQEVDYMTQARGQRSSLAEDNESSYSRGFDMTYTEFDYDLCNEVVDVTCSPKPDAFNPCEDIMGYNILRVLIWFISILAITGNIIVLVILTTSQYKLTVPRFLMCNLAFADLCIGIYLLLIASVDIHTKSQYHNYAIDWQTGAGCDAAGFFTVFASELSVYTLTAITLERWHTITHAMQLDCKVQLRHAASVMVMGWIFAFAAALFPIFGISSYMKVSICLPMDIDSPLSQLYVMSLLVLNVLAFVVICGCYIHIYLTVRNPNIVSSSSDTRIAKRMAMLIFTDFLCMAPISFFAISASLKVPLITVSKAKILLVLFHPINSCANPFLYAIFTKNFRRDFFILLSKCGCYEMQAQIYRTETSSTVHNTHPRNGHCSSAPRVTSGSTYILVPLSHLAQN
Assay: EC50 of cyclic AMP production in CHO FSHR cells + EC20 FSH (Assay A)
Type: cell-based
Method: EC50 of Cyclic AMP Production in CHO FSHR Cells+EC20 FSH (Assay A)
2500 Cho-FSHR-LUC-1-1-43 cells were plated per well in 5 μl of phenol red free DMEM/F12+1% FBS. Cells were plated in 384 well, solid white low volume plates (Greiner 784075) by Multidrop. Cells were assayed by adding 100 μl of 2×EC20 FSH/IBMX in DMEM/F12+0.1% BSA) by Multidrop to 2 μl of test compound stamped in 384 well plates (compounds are diluted 1:50). The final FSH concentration was […], and the final IBMX concentration was 200 μM. The compound plate map was as follows: Column 1: 2 μl of DMSO; Column 2: 2 μl of DMSO; Columns 3-12 and 13-24: 2 μl of test compound, diluted 1:4 in 100% DMSO, or 2 μl of FSH, diluted 1:4 in DMEM/F12+0.1% BSA. The starting concentration for FSH was 50 nM (final concentration was 0.5 nM). Furthermore, Column 23 contained 2 μl of EC100 FSH reference (100×) (diluted in DMEM/F12+0.1% BSA) at a final concentration of 0.5 nM, and Column 24 contained 2 μl of 1 mM AS707664/2 reference compound 2. 5 μl of compound+EC20 FSH mixture were transferred to cell plates (1:2 dilution into 5 μl of cell media) The plates were incubated at 37° C. for 1 h. 10 μl of mixed HTRF (CisBio #62AM4PEC) reagents were added per well and incubated at room temperature for 1 h. The plates were read on Envision using the cAMP HTRF—low volume 384 well protocol. The readout was the calculated fluorescence ratio (665 nm/620 nm). Values given in percent (%) indicate the percental effect (response) at a certain concentration of agonist relative to the maximum response of the FSH standard.

[1] = CHO FSHR cells + EC20 FSH, cAMP HTRF, read-out: Assay A: EC50 of cyclic AMP production

Compound | EC50 [1] [nM] | EC50 [nM]
COc1cc2c(cc1-c1cscn1)-c1c(c(C(=O)N(C)C(C)(C)C)nn1-c1ccsc1)CO2 [Compound 81, 7-Methoxy-8-thiazol-4-yl-1-thiophen-3-yl-1,4-dihydro-chromeno[4,3-c]pyrazole-3-carboxylic acid tert-butyl-methyl-amide] | < 100 | 
COc1cc2c(cc1C=C(C)C)-c1c(c(C(=O)N3CCOCC3(C)C)nn1-c1ccsc1)CO2 [Compound 39, (3,3-Dimethyl-morpholin-4-yl)-[7-methoxy-8-(2-methyl-propenyl)-1-thiophen-3-yl-1,4-dihydro-chromeno[4,3-c]pyrazol-3-yl]-methanone] | < 100 | 
COc1cc2c(cc1-c1ccn(C)c1)-c1c(c(C(=O)NC3CC(O)C3)nn1-c1ccsc1)CO2 (centres unmarked) [Compound 136, 7-Methoxy-8-(1-methyl-1H-pyrrol-3-yl)-1-thiophen-3-yl-1,4-dihydro-chromeno[4,3-c]pyrazole-3-carboxylic acid (3-hydroxy-cyclobutyl)-amide] | > 5000 | 
COc1cc2c(cc1-c1cn[nH]c1)-c1c(c(C(=O)NCCN3CCOC3=O)nn1-c1ccsc1)CO2 [Compound 62, 7-Methoxy-8-(1H-pyrazol-4-yl)-1-thiophen-3-yl-1,4-dihydro-chromeno[4,3-c]pyrazole-3-carboxylic acid [2-(2-oxo-oxazolidin-3-yl)-ethyl]-amide] | 100 to 1000 | 
COc1cc2c(cc1-c1sccc1C)-c1c(c(C(=O)N(C)C(C)(C)C)nn1-c1ccsc1)CO2 [Compound 88, 7-Methoxy-8-(3-methyl-thiophen-2-yl)-1-thiophen-3-yl-1,4-dihydro-chromeno[4,3-c]pyrazole-3-carboxylic acid tert-butyl-methyl-amide] | < 100 | 
COCC(C)(C)N(C)C(=O)c1nn(-c2ccsc2)c2c1COc1cc(OC)c(C=C(C)C)cc1-2 [Compound 31] |  | < 100
[2H]C([2H])([2H])OC1CCN(C(=O)c2nn(-c3ccsc3)c3c2COc2cc(OC)c(C=C(C)C)cc2-3)C1 (centres unmarked) [Compound 49] | 100 to 1000 | 
COc1cc2c(cc1-c1ccnn1C)-c1c(c(C(=O)N(C)C(C)(C)C)nn1-c1ccsc1)CO2 [Compound 64, 7-Methoxy-8-(2-methyl-2H-pyrazol-3-yl)-1-thiophen-3-yl-1,4-dihydro-chromeno[4,3-c]pyrazole-3-carboxylic acid tert-butyl-methyl-amide] | < 100 | 
COc1cc2c(cc1-c1ccnn1C)-c1c(c(C(=O)N(C)CC3(C)COC3)nn1-c1ccsc1)CO2 [Compound 110, 7-Methoxy-8-(2-methyl-2H-pyrazol-3-yl)-1-thiophen-3-yl-1,4-dihydro-chromeno[4,3-c]pyrazole-3-carboxylic acid methyl-(3-methyl-oxetan-3-ylmethyl)-amide] | < 100 | 
COc1cc2c(cc1-c1ccnn1C)-c1c(c(C(=O)NC3(CO)COC3)nn1-c1ccsc1)CO2 [Compound 111, 7-Methoxy-8-(2-methyl-2H-pyrazol-3-yl)-1-thiophen-3-yl-1,4-dihydro-chromeno[4,3-c]pyrazole-3-carboxylic acid (3-hydroxymethyl-oxetan-3-yl)-amide] | 100 to 1000 | 
[2H]C([2H])([2H])N(CCN(C(=O)c1nn(-c2ccsc2)c2c1COc1cc(OC)c(C=C(C)C)cc1-2)C([2H])([2H])[2H])C(C)=O [Compound 61] | < 100 | 
[2H]C([2H])([2H])N(CCCN(C(=O)C1CCC1)C([2H])([2H])[2H])C(=O)c1nn(-c2ccsc2)c2c1COc1cc(OC)c(C=C(C)C)cc1-2 [Compound 69] | 100 to 1000 | 
COc1cc2c(cc1-c1cnoc1)-c1c(c(C(=O)N(C)C(C)(C)C)nn1-c1ccsc1)CO2 [Compound 72, 8-Isoxazol-4-yl-7-methoxy-1-thiophen-3-yl-1,4-dihydro-chromeno[4,3-c]pyrazole-3-carboxylic acid tert-butyl-methyl-amide] | < 100 | 
COc1cc2c(cc1-c1ccn(C)c1)-c1c(c(C(=O)N(C)C(C)(C)C)nn1-c1ccsc1)CO2 [Compound 55, 7-Methoxy-8-(1-methyl-1H-pyrrol-3-yl)-1-thiophen-3-yl-1,4-dihydro-chromeno[4,3-c]pyrazole-3-carboxylic acid tert-butyl-methyl-amide] | < 100 | 

Now from value to compound, other results behind:

EC50 [1] [nM] | Compound | EC50 [nM]
100 to 1000 | COc1cc2c(cc1CC(C)C)-c1c(c(C(=O)NC3(C)COC3)nn1-c1ccsc1)CO2 [Compound 145, 8-Isobutyl-7-methoxy-1-thiophen-3-yl-1,4-dihydro-chromeno[4,3-c]pyrazole-3-carboxylic acid (3-methyl-oxetan-3-yl)-amide] | 
> 5000 | COc1cc2c(cc1-c1ccn(C)c1)-c1c(c(C(=O)N3CCN(C(C)=O)CC3)nn1-c1ccsc1)CO2 [Compound 155, 1-{4-[7-Methoxy-8-(1-methyl-1H-pyrrol-3-yl)-1-thiophen-3-yl-1,4-dihydro-chromeno[4,3-c]pyrazole-3-carbonyl]-piperazin-1-yl}-ethanone] | 
< 100 | CCCn1nc(C)cc1-c1cc2c(cc1OC)OCc1c(C(=O)N3CCOCC3(C)C)nn(-c3ccsc3)c1-2 [Compound 212, (3,3-Dimethyl-morpholin-4-yl)-[7-methoxy-8-(5-methyl-2-propyl-2H-pyrazol-3-yl)-1-thiophen-3-yl-1,4-dihydro-chromeno[4,3-c]pyrazol-3-yl]-methanone] | 
1000 to 5000 | COc1cc2c(cc1CN)-c1c(c(C(=O)N3CCOCC3(C)C)nn1-c1ccsc1)CO2 [Compound 166, (8-Aminomethyl-7-methoxy-1-thiophen-3-yl-1,4-dihydro-chromeno[4,3-c]pyrazol-3-yl)-(3,3-dimethyl-morpholin-4-yl)-methanone] | 
1000 to 5000 | COc1cc2c(cc1-c1ccn(C)n1)-c1c(c(C(=O)N3CCN(C(=O)OC(C)(C)C)CC34CC4)nn1-c1ccsc1)CO2 [Compound 158, 4-[7-Methoxy-8-(1-methyl-1H-pyrazol-3-yl)-1-thiophen-3-yl-1,4-dihydro-chromeno[4,3-c]pyrazole-3-carbonyl]-4,7-diaza-spiro[2.5]octane-7-carboxylic acid tert-butyl ester] | 
100 to 1000 | [2H]C([2H])([2H])OCC1(C)CCCN1C(=O)c1nn(-c2ccsc2)c2c1COc1cc(OC)ccc1-2 (centres unmarked) [Compound 183, (2-Methoxymethyl-2-methyl-pyrrolidin-1-yl)-(7-methoxy-1-thiophen-3-yl-1,4-dihydro-chromeno[4,3-c]pyrazol-3-yl)-methanone] | 
100 to 1000 | COc1cc2c(cc1-c1cnn(CCN(C)C)c1)-c1c(c(C(=O)N3CCOCC3(C)C)nn1-c1ccsc1)CO2 [Compound 203, {8-[1-(2-Dimethylamino-ethyl)-1H-pyrazol-4-yl]-7-methoxy-1-thiophen-3-yl-1,4-dihydro-chromeno[4,3-c]pyrazol-3-yl}-(3,3-dimethyl-morpholin-4-yl)-methanone] | 
> 5000 | COc1cc2c(cc1-c1ccn(C)n1)-c1c(c(C(=O)NCC3(O)COC3)nn1-c1ccsc1)CO2 [Compound 165, 7-Methoxy-8-(1-methyl-1H-pyrazol-3-yl)-1-thiophen-3-yl-1,4-dihydro-chromeno[4,3-c]pyrazole-3-carboxylic acid (3-hydroxy-oxetan-3-ylmethyl)-amide] | 
> 5000 | COc1cc2c(cc1-c1ccn(C)n1)-c1c(c(C(=O)N[C@H]3CC[C@@H](O)C3)nn1-c1ccsc1)CO2 [Compound 172, 7-Methoxy-8-(1-methyl-1H-pyrazol-3-yl)-1-thiophen-3-yl-1,4-dihydro-chromeno[4,3-c]pyrazole-3-carboxylic acid ((1S,3R)-3-hydroxy-cyclopentyl)-amide] | 
